The assay deals with Sphingosine 1-phosphate receptor 3 (Homo sapiens, UniProt Q99500). Nature of the assay: S1P3 receptor activation, EC50 – cell-based, NFAT-BLA reporter, dose response (AID 439).
Where [1] appears, read: inactive by the depositor's call.

pEC50: −log10 of the molar value.

Sphingosine 1-phosphate receptor 3, sequence (Q99500 whole entry): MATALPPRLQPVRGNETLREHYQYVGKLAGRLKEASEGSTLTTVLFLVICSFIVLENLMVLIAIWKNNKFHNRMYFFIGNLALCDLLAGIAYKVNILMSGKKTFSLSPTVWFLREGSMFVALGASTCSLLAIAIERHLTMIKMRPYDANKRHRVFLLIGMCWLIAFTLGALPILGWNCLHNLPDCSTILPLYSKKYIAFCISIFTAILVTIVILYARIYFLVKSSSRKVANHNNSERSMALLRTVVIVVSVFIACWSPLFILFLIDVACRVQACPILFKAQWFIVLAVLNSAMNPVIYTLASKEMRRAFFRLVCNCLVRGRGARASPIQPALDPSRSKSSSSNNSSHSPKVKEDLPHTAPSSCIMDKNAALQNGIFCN

Usually pEC50 stands for the EC50 on a negative log10 scale, so that one unit is a factor of ten. Read a low pEC50 as a large EC50. In turn, `CCOC(=O)C1C(=N)OC2=C(C(=O)CCC2)C1c1ccccc1OCC` (stereo not given) [2-amino-4-(2-ethoxyphenyl)-5-oxo-4,6,7,8-tetrahydro-1-benzopyran-3-carboxylic acid ethyl ester] gave a negative-log EC50 (pEC50) of 4.73.

`CCOC(=O)N1CCN(C(=O)c2nn(-c3cc(OC)cc(OC)c3)c(=O)c3ccccc23)CC1` [4-[3-(3,5-dimethoxyphenyl)-4-keto-phthalazine-1-carbonyl]piperazine-1-carboxylic acid ethyl ester] gave a pEC50 of less than 4.35. On the same count and under the same terms, the figure for `Cc1cc(C)n(-c2nc(NCC(C)O)c3c4c(sc3n2)CCCC4)n1` (stereo not given) [1-[[2-(3,5-dimethyl-1-pyrazolyl)-5,6,7,8-tetrahydro-[1]benzothiolo[2,3-d]pyrimidin-4-yl]amino]-2-propanol] is 5.11. The compound `O=C(Cc1cccs1)NCc1cn2ccccc2n1` [MLS000103862] showed a pEC50 of less than 4.35. The same measure, in the same setting: next, `CCC(C)NC(=O)c1c(N)n(Cc2ccc3c(c2)OCO3)c2nc3ccccc3nc12` (stereo not given) [2-amino-1-(1,3-benzodioxol-5-ylmethyl)-N-butan-2-ylpyrrolo[3,2-b]quinoxaline-3-carboxamide]: 5.10; `O=C(OCCN1C(=O)c2ccccc2C1=O)c1cccc(OC(F)F)c1` [2-(1,3-dioxoisoindol-2-yl)ethyl 3-(difluoromethoxy)benzoate]: less than 4.35.

`O=C(NC1=NCCS1)c1cc(-c2ccccc2)nn1-c1ccccc1`: the pEC50 under setting [1] is 4.38. On the same count and under the same terms, next, `N#CCSc1nnc(-c2ccccc2)c(-c2ccccc2)n1` [2-[(5,6-diphenyl-1,2,4-triazin-3-yl)sulfanyl]acetonitrile]: 4.32; `N=c1c(C(=O)NCc2ccco2)cc2c(=O)n3ccccc3nc2n1Cc1ccc(Cl)cc1` [SMR000047818]: 4.19. On to `CC(C)n1c(=N)c(C(=O)NCCc2ccccc2)cc2c(=O)n3ccccc3nc21` [2-Imino-1-isopropyl-10-oxo-1,10-dihydro-2H-1,9,10a-triaza-anthracene-3-carboxylic acid phenethyl-amide], for which the pEC50 was less than 4.35. Same read-out and setting: next, `CCCSc1nc(N2CCOCC2)c2c(c1C#N)CCCC2` [1-(4-morpholinyl)-3-(propylthio)-5,6,7,8-tetrahydroisoquinoline-4-carbonitrile]: 5.36. For `c1ccc(C(Cc2nc(-c3cccnc3)no2)c2ccccc2)cc1` [5-(2,2-diphenylethyl)-3-(3-pyridinyl)-1,2,4-oxadiazole], the pEC50 under setting [1] is 4.87. Still for that read-out and setting: the figure for `COc1ccc(Nc2nc(Nc3ccc(OC)cc3)nc(-n3[nH]c(=O)c(C)c3C)n2)cc1` [2-[4,6-bis(4-methoxyanilino)-1,3,5-triazin-2-yl]-3,4-dimethyl-1H-pyrazol-5-one] is 4.83. The same measure, in the same setting: the figure for `CCOc1ccc(-c2nc(-c3ccccc3)no2)cc1OCC` [5-(3,4-diethoxyphenyl)-3-phenyl-1,2,4-oxadiazole] is 4.72. Regarding `c1ccc(C(Cc2nc(-c3ccncc3)no2)c2ccccc2)cc1` [4-[5-(2,2-diphenylethyl)-1,2,4-oxadiazol-3-yl]pyridine], the negative logarithm of the EC50 (pEC50) was 5.28. On to `O=C(NCc1ccco1)c1cc2ccc(O)cc2oc1=O` [MLS000049147], for which, under setting [1], the negative logarithm of the EC50 (pEC50) was 4.75. On the same count and under the same terms, next, `CC(C)Cn1c(N)c(C(=O)NCc2cccs2)c2nc3ccccc3nc21` [SMR000043082]: 4.53. Still for that read-out and setting: the figure for `Cn1c(=O)c2c(-c3ccccc3)n(C3CCCCC3)cc2n(C)c1=O` [6-cyclohexyl-1,3-dimethyl-5-phenyl-pyrrolo[3,4-d]pyrimidine-2,4-dione] is 4.51. On to `Cc1cc(C)n(-c2nc(NCCO)c3c4c(sc3n2)CCCC4)n1` [SMR000046729], for which the negative logarithm of the EC50 (pEC50) is 5.17. Compound `Nc1c(C(=O)NCCN2CCOCC2)c2nc3ccccc3nc2n1CCc1ccccc1` [2-amino-N-[2-(4-morpholinyl)ethyl]-1-(2-phenylethyl)-3-pyrrolo[3,2-b]quinoxalinecarboxamide] showed a pEC50 under setting [1] of 3.75.

`Cc1onc(-c2c(Cl)cccc2Cl)c1C(=O)N1CCc2ccccc21` [[3-(2,6-dichlorophenyl)-5-methyl-1,2-oxazol-4-yl]-(2,3-dihydroindol-1-yl)methanone] showed a pEC50 under setting [1] of 4.51. Regarding `Cc1cc(C)nc(-n2nc(C)c(Sc3ccc(F)cc3)c2N)n1` [2-(4,6-dimethyl-2-pyrimidinyl)-4-[(4-fluorophenyl)thio]-5-methyl-3-pyrazolamine], the negative logarithm of the EC50 (pEC50) is 5.63. As for `CCCCCCn1c(N)c(C(=O)NCCN2CCOCC2)c2nc3ccccc3nc21` [2-amino-1-hexyl-N-(2-morpholin-4-ylethyl)pyrrolo[3,2-b]quinoxaline-3-carboxamide], the negative-log EC50 (pEC50) under setting [1] is 4.37. With `COCCNc1nc(-n2nc(C)cc2C)nc2sc3c(c12)CCCC3` [2-(3,5-dimethyl-1-pyrazolyl)-N-(2-methoxyethyl)-5,6,7,8-tetrahydro-[1]benzothiolo[2,3-d]pyrimidin-4-amine], under setting [1], the negative-log EC50 (pEC50) is 4.88. For the compound `CC(C)OCCCNC(=O)c1c(N)n(Cc2cccs2)c2nc3ccccc3nc12` [2-amino-N-(3-propan-2-yloxypropyl)-1-(thiophen-2-ylmethyl)pyrrolo[3,2-b]quinoxaline-3-carboxamide], the pEC50 under setting [1] was 4.65. On the same count and under the same terms, the figure for `CCC(C)c1ccc2oc(-c3ccc(NC(=O)c4nnc[nH]4)cc3)nc2c1` (stereo not given) [N-[4-(5-sec-butyl-1,3-benzoxazol-2-yl)phenyl]-1H-1,2,4-triazole-3-carboxamide] is 4.71; for `CC(Oc1ccccc1Br)C(=O)N1CCc2ccccc21` (stereo not given) [1-[2-(2-bromophenoxy)propanoyl]indoline] it is 4.60.

`COc1ccccc1Oc1cc(C#N)c(C#N)cc1-n1nnc2ccccc21` [4-(1-benzotriazolyl)-5-(2-methoxyphenoxy)benzene-1,2-dicarbonitrile]: the pEC50 under setting [1] was 4.76. As for `CC(=O)Oc1ccc2cc(-c3nc4ccccc4n3C)c(=O)oc2c1`, the pEC50 is 5.19. In the case of `Nc1c(C(=O)NCc2ccc3c(c2)OCO3)c2nc3ccccc3nc2n1CCCN1CCOCC1` [2-amino-N-(1,3-benzodioxol-5-ylmethyl)-1-(3-morpholin-4-ylpropyl)pyrrolo[3,2-b]quinoxaline-3-carboxamide], under setting [1], the pEC50 was 4.72.

These data come from BindingDB's records for doi:10.7270/Q2PZ576Z (The Scripps Research Institute Molecular Screening Center, 2007).
